Laboratory results as given in BindingDB's records for doi:10.1007/s00213-009-1521-8 (Case Western Reserve University, 2009).
pKi: −log10 of the molar value.

Tests used:
[1] = target: Beta-1 adrenergic receptor (Homo sapiens, UniProt P08588)
[2] = target: Muscarinic acetylcholine receptor M1 (Homo sapiens, UniProt P11229)
[3] = target: Alpha-1A adrenergic receptor (Homo sapiens, UniProt P35348)
[4] = target: 5-hydroxytryptamine receptor 5A (Homo sapiens, UniProt P47898)
[5] = target: Kappa-type opioid receptor (Homo sapiens, UniProt P41145)
Histamine H2 receptor = Histamine H2 receptor (Homo sapiens, UniProt P25021)
Histamine H4 receptor = Histamine H4 receptor (Homo sapiens, UniProt Q9H3N8)
Chain of Histamine H4 receptor (Q9H3N8 whole entry): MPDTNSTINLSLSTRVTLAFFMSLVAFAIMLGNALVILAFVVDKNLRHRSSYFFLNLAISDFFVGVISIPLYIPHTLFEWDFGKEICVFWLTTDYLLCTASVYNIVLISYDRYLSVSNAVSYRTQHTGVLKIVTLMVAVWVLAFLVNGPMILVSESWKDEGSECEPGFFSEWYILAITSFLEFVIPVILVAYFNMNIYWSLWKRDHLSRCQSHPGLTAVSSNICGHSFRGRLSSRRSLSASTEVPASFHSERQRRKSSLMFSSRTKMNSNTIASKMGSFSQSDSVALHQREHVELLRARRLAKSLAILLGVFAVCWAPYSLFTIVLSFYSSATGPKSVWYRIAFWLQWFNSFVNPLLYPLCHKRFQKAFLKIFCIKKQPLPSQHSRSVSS

[6] = target: Alpha-1D adrenergic receptor (Homo sapiens, UniProt P25100)
[7] = target: Muscarinic acetylcholine receptor M4 (Homo sapiens, UniProt P08173)
Mu-type opioid receptor = Mu-type opioid receptor (Homo sapiens, UniProt P35372)
[8] = target: 5-hydroxytryptamine receptor 1E (Homo sapiens, UniProt P28566)
[9] = target: Muscarinic acetylcholine receptor M3 (Homo sapiens, UniProt P20309)
[10] = target: Sigma non-opioid intracellular receptor 1 (Rattus norvegicus, UniProt Q9R0C9)
Chain of Sigma non-opioid intracellular receptor 1 (Q9R0C9 whole entry): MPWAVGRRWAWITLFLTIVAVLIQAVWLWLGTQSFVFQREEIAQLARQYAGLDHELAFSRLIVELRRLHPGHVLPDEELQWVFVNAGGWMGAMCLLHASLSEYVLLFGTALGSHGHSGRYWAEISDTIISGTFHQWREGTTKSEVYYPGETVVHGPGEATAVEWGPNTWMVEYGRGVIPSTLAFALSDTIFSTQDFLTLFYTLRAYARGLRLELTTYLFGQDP

[11] = target: Alpha-1B adrenergic receptor (Homo sapiens, UniProt P35368)
[12] = target: 5-hydroxytryptamine receptor 1A (Homo sapiens, UniProt P08908)
Chain of 5-hydroxytryptamine receptor 1A (P08908 whole entry): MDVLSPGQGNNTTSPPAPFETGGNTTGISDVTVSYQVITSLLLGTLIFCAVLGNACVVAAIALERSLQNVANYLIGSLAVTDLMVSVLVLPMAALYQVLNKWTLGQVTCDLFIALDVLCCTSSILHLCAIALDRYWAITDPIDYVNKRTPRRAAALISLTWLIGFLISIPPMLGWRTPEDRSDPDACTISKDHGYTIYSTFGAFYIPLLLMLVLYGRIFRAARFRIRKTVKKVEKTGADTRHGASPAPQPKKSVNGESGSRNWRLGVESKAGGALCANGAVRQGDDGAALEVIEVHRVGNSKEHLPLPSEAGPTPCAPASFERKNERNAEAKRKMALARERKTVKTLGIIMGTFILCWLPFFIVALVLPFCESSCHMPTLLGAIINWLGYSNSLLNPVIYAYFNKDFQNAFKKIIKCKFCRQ

D(1A) dopamine receptor = D(1A) dopamine receptor (Homo sapiens, UniProt P21728)
Chain of D(1A) dopamine receptor (P21728 whole entry): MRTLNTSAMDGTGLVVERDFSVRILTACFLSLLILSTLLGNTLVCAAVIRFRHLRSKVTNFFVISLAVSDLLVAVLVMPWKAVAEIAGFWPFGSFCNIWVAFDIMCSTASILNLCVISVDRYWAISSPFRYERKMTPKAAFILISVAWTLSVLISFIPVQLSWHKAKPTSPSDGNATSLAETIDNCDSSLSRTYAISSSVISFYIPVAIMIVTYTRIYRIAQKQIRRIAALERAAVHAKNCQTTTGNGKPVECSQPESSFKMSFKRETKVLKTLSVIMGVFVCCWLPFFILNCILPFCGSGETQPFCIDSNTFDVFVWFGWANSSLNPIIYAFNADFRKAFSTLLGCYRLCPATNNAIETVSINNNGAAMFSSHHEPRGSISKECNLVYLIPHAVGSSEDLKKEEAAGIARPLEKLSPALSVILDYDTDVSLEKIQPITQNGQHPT

D(1B) dopamine receptor = D(1B) dopamine receptor (Homo sapiens, UniProt P21918)
[13] = target: Delta-type opioid receptor (Homo sapiens, UniProt P41143)
[14] = target: Alpha-2C adrenergic receptor (Homo sapiens, UniProt P18825)
[15] = target: Muscarinic acetylcholine receptor M5 (Homo sapiens, UniProt P08912)
Chain of Muscarinic acetylcholine receptor M5 (P08912 whole entry): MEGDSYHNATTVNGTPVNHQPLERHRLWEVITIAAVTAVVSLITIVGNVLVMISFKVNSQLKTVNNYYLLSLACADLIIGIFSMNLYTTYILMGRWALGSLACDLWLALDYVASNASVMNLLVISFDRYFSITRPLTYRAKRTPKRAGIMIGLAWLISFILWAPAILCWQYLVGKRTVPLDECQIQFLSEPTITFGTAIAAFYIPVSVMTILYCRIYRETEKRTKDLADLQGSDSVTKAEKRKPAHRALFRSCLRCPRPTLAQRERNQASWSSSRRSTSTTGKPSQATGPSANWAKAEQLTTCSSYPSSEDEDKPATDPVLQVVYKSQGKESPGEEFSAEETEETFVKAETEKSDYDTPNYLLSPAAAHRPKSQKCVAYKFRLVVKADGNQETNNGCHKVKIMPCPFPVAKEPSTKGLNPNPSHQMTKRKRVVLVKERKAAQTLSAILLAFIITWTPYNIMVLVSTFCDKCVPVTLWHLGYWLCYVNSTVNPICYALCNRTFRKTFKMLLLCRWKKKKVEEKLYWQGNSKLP

[16] = target: Prostaglandin E2 receptor EP4 subtype (Homo sapiens, UniProt P35408)
[17] = target: Gamma-aminobutyric acid receptor subunit alpha-1 (Rattus norvegicus, UniProt P62813)
Chain of Gamma-aminobutyric acid receptor subunit alpha-1 (P62813 whole entry): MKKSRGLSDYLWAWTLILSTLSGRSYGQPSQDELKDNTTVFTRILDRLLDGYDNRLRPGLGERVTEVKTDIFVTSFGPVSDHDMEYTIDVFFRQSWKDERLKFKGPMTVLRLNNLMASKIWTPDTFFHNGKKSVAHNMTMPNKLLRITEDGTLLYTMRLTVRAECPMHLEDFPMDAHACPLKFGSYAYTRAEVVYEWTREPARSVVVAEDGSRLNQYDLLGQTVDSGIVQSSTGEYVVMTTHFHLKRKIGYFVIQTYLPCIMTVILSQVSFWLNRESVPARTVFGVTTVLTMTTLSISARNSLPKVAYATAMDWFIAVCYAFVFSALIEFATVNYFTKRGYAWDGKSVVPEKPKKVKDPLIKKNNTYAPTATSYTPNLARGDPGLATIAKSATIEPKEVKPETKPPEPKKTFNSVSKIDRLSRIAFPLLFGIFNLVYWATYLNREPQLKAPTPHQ

[18] = target: Sodium-dependent noradrenaline transporter (Homo sapiens, UniProt P23975)
[19] = target: Beta-2 adrenergic receptor (Homo sapiens, UniProt P07550)
Histamine H1 receptor = Histamine H1 receptor (Homo sapiens, UniProt P35367)
[20] = target: Alpha-2A adrenergic receptor (Homo sapiens, UniProt P08913)
[21] = target: Prostaglandin E2 receptor EP3 subtype (Homo sapiens, UniProt P43115)
[22] = target: 5-hydroxytryptamine receptor 6 (Homo sapiens, UniProt P50406)
[23] = target: Beta-3 adrenergic receptor (Homo sapiens, UniProt P13945)
[24] = target: Muscarinic acetylcholine receptor M2 (Homo sapiens, UniProt P08172)
Chain of Muscarinic acetylcholine receptor M2 (P08172 whole entry): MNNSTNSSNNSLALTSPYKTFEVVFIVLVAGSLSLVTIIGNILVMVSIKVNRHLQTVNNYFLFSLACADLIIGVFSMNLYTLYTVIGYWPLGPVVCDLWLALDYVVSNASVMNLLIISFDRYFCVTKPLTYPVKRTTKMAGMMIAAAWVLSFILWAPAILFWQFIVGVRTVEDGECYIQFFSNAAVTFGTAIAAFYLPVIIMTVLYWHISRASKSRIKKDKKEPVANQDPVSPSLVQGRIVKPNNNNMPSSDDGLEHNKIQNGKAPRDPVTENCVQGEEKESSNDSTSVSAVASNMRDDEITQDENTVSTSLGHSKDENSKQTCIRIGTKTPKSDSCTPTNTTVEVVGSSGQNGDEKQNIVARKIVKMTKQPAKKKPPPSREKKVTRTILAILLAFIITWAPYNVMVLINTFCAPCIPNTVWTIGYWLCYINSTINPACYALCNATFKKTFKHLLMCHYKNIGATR

[25] = target: 5-hydroxytryptamine receptor 2C (Homo sapiens, UniProt P28335)
[26] = target: 5-hydroxytryptamine receptor 1B (Homo sapiens, UniProt P28222)
[27] = target: 5-hydroxytryptamine receptor 3A (Homo sapiens, UniProt P46098)
Chain of 5-hydroxytryptamine receptor 3A (P46098 whole entry): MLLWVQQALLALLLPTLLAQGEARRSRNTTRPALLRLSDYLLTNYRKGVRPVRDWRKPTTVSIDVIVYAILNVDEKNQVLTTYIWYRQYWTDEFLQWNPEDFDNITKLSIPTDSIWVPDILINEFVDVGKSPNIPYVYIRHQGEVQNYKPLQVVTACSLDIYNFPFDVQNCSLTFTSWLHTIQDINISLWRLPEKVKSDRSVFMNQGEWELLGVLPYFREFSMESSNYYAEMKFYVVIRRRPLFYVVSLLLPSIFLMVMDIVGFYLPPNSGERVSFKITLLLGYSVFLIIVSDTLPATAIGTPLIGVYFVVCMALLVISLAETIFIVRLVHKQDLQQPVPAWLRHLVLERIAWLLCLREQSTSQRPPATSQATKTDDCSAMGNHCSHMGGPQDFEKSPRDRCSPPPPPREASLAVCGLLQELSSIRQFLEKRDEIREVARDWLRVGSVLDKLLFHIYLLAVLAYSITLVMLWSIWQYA

D(4) dopamine receptor = D(4) dopamine receptor (Homo sapiens, UniProt P21917)
[28] = target: 5-hydroxytryptamine receptor 1D (Homo sapiens, UniProt P28221)
Chain of 5-hydroxytryptamine receptor 1D (P28221 whole entry): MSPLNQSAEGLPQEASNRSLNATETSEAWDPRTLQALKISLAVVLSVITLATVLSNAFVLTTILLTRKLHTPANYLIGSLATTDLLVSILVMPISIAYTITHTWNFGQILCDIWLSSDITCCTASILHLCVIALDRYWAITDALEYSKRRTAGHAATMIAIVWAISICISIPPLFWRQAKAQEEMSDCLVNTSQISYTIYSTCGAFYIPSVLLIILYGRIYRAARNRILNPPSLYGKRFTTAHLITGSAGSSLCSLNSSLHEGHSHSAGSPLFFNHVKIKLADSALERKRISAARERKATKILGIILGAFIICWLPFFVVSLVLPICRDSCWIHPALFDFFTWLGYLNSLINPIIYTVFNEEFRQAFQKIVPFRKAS

Chain of 5-hydroxytryptamine receptor 5A (P47898 whole entry): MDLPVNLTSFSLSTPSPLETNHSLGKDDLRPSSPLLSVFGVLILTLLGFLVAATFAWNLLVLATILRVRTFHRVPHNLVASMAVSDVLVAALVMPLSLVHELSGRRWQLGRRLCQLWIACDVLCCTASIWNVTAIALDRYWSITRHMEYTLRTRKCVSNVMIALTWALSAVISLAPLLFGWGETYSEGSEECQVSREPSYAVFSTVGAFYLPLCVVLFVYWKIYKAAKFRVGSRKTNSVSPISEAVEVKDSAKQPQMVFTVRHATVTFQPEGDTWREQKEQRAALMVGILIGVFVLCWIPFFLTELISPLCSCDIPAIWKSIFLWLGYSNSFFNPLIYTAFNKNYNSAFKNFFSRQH
Chain of Muscarinic acetylcholine receptor M1 (P11229 whole entry): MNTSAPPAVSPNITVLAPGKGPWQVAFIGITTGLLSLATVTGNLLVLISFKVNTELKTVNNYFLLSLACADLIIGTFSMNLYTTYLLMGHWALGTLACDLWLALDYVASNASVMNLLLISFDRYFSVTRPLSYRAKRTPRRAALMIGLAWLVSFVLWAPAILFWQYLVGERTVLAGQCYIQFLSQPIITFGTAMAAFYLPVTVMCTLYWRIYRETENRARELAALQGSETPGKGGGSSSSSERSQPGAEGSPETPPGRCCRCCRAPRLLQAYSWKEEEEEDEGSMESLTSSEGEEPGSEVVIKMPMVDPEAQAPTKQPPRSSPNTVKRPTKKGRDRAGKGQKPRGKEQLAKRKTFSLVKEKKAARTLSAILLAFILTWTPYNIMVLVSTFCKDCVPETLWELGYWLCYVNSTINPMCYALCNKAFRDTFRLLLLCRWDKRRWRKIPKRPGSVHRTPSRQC

Q: How did the pKi [1] turn out when `CCN1CCCC1CNC(=O)c1cc(S(=O)(=O)CC)c(N)cc1OC` (stereo not given) [NSC_2159] was run?
A: < 5.00

Q: And the pKi [2]?
A: < 5.00

Q: And the pKi [3]?
A: < 5.00

Q: And the pKi [4]?
A: < 5.00

Q: What about the pKi [5] of the same molecule?
A: < 5.00

Q: And the pKi (Histamine H2 receptor)?
A: < 5.00

Q: What about the pKi (Histamine H4 receptor) of the same molecule?
A: < 5.00

Q: What about the pKi [6] of the same molecule?
A: < 5.00

Q: And the pKi [7]?
A: < 5.00

Q: What about the pKi (Mu-type opioid receptor) of the same molecule?
A: < 5.00

Q: And the pKi [8]?
A: < 5.00

Q: And the pKi [9]?
A: < 5.00

Q: What about the pKi [10] of the same molecule?
A: < 5.00

Q: What about the pKi [11] of the same molecule?
A: < 5.00

Q: And the pKi [12]?
A: < 5.00

Q: And the pKi (D(1A) dopamine receptor)?
A: < 5.00

Q: What about the pKi (D(1B) dopamine receptor) of the same molecule?
A: < 5.00

Q: What about the pKi [13] of the same molecule?
A: < 5.00

Q: What about the pKi [14] of the same molecule?
A: 5.81

Q: And the pKi [15]?
A: < 5.00

Q: What about the pKi [16] of the same molecule?
A: < 5.00

Q: What about the pKi [17] of the same molecule?
A: < 5.00

Q: And the pKi [18]?
A: < 5.00

Q: And the pKi [19]?
A: < 5.00

Q: What about the pKi (Histamine H1 receptor) of the same molecule?
A: < 5.00

Q: And the pKi [20]?
A: 5.95

Q: What about the pKi [21] of the same molecule?
A: < 5.00

Q: And the pKi [22]?
A: 5.38

Q: What about the pKi [23] of the same molecule?
A: < 5.00

Q: What about the pKi [24] of the same molecule?
A: < 5.00

Q: What about the pKi [25] of the same molecule?
A: < 5.00

Q: What about the pKi [26] of the same molecule?
A: 5.76

Q: And the pKi [27]?
A: < 5.00

Q: What about the pKi (D(4) dopamine receptor) of the same molecule?
A: 5.63

Q: And the pKi [28]?
A: 5.87
